Reference: article PMC3469269 (ACS medicinal chemistry letters, 2012)

Assays:
hDAT = hDAT (Homo sapiens, UniProt Q01959); assay: Inhibition of [3H]-WIN-35,428 binding to hDAT in N2A neuroblastoma cells
DAT [1] = details: ref Vaughan et al., unpublished observations; cited from earlier work
DAT [2] = details: cited from earlier work

hDAT, sequence (Q01959 whole entry): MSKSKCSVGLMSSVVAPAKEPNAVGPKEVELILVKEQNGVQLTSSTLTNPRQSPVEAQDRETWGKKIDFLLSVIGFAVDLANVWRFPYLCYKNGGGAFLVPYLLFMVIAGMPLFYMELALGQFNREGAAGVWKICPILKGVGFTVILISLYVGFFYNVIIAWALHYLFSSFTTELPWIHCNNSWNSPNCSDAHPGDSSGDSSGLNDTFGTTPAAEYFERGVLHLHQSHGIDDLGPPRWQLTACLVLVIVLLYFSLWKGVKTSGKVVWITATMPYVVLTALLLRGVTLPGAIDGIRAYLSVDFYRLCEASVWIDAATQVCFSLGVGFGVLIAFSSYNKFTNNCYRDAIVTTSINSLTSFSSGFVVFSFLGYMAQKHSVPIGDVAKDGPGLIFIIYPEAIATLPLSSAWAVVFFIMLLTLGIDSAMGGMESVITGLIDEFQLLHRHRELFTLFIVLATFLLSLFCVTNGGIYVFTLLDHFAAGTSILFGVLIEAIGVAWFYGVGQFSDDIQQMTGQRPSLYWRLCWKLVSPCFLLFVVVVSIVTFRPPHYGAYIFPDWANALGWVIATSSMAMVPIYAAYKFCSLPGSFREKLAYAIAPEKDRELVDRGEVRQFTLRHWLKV

## COC(=O)[C@H](c1ccc(N=[N+]=[N-])c(I)c1)[C@H]1CCCCN1 (racemic) [(±)-6, (±)-threo-4-Azido-3-iodomethylphenidate]
hDAT; relative to (±)-14 (aniline replaced by azide)
  fold increase in hDAT affinity: ~ 2.3 fold

## COC(=O)[C@H](c1ccc(N)c(I)c1)[C@H]1CCCCN1 (racemic) [(±)-14]
hDAT; relative to aniline (±)-13 (addition of 3-I)
  fold decrease in binding affinity for hDAT: ~ 1.4 fold

## COC(=O)C1C(c2ccc(N=[N+]=[N-])c(I)c2)CC2CCC1N2C (stereo not shown) [compound 5, 3-(4′-azido-3′-iodo-phenyl)-8-methyl-8-aza-bicyclo-[3.2.1]octane-2-carboxylic acid methyl ester]
DAT [1]
  labeling of the DAT in immunoprecipitation and proteolysis experiments: fails to label the DAT
DAT [2]
  binding to the DAT: high affinity, wash-resistant binding
